In US8841257B2, “Inhibitors of STAT3 and uses thereof” (Board of Regents, The University of Texas System, priority 2009, dated 2014):

Experiments:
Format in all cases: cell-based
Akt = assay: pAkt levels in BT20 cells; conditions: 5 μM; BT20, constitutively activated Akt
[1] = system: MDA7, MDA-MB-231, SUM149, and SUM190; assay: Anchorage-independent growth in soft agar, four breast tumor models; conditions: MDA7, MDA-MB-231, SUM149, SUM190; 28 days
Experimental: Assay for anchorage-independent growth in soft agar Cells (5×10^5) were suspended in 1× DMEM/HEPES, 10% heat-inactivated FBS, 0.13% bicarbonate, and 0.33% BBL agar. The cells were plated on 1% base agar plates (60 mm) containing 1× DMEM/HEPES, 10% heat-inactivated FBS, and 1% BBL agar. Fresh serum-containing medium was fed to the cells on 3-day intervals. The dishes were then incubated at 37° C. with 5% CO2 for 28 days. The colonies that grew in soft agar were photographed and counted. Data are expressed as the number of colonies formed per plate±S.E.M. and three plates were counted per cell line.

STAT1 = target: T1, STAT1 (Homo sapiens, UniProt P42224); assay: IFNγ-stimulated phosphoStat1 in BT20 cells; design: endogenous in cells; host or cells: BT20 breast tumor cells; conditions: 5 μM, 2 h, then IFNγ 25 ng/mL, 20 and 45 min
T1 sequence (P42224 1-750): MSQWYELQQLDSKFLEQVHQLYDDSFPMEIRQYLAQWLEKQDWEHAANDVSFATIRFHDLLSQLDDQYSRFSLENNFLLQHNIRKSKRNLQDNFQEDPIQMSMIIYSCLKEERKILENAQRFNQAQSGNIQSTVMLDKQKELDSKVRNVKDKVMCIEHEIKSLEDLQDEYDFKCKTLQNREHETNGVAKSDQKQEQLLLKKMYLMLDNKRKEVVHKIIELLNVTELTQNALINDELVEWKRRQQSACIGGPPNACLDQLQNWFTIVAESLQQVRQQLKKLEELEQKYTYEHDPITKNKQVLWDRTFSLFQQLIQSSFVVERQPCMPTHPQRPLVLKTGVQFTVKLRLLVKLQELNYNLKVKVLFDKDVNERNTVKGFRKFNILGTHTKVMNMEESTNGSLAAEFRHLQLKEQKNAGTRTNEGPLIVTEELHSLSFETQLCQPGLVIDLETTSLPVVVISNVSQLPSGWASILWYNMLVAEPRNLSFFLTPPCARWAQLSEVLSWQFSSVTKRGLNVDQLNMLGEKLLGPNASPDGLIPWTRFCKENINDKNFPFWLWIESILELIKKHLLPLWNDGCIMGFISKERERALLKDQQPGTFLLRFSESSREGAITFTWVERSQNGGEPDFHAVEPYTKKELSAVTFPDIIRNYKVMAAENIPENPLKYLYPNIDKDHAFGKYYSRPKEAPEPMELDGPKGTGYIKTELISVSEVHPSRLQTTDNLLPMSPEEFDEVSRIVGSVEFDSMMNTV
Experimental: The compounds are selective for STAT3 over STAT1 in BT20 breast tumor cells. BT20 cells prepared as above and were treated with 5 μM of the compound of Example 1 for two hours then were treated with 25 ng/mL of interferon γ (IFNγ). […] (FIG. 4, bottom panel).

STAT3 = STAT3 (Homo sapiens, UniProt P40763); assay: EGF-stimulated STAT3 phosphorylation in MDA-MB-468 cells; design: host or cells: MDA-MB-468 breast tumor cells; conditions: 1.5 hr prodrug, then EGF 100 ng/mL 30 min
STAT3, sequence (P40763 whole entry): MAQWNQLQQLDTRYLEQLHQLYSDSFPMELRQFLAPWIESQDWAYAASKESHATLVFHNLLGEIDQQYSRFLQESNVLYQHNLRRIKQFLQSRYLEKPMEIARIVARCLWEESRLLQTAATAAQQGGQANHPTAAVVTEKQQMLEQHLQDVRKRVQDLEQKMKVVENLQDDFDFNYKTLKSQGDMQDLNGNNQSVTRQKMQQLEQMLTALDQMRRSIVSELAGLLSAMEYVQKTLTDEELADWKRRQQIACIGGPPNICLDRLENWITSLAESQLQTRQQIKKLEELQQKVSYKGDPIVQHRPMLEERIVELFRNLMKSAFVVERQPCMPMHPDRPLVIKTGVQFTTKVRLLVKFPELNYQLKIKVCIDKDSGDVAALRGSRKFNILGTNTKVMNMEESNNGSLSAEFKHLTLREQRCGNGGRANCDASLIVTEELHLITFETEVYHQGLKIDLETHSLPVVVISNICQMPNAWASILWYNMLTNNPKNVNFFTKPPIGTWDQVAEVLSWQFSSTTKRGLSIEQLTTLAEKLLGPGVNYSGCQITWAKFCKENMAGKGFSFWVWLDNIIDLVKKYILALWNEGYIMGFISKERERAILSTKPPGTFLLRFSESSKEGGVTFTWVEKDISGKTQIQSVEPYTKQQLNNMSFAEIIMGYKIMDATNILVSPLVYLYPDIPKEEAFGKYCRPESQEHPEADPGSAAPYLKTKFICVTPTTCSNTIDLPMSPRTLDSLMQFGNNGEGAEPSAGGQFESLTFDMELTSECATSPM
Experimental: Effect of prodrug on the phosphorylation of STAT3, STAT5 and Akt in response to Epidermal Growth Factor stimulation. MDA-MB-468 cells were prepared as above. Prodrugs were prepared as 10 mM stock solutions in DMSO and aliquots were added to the culture media to give the correct final concentrations. After 1.5 hr EGF was added at 100 ng/mL. After 30 minutes cells were collected and lysed and proteins were separated by PAGE and transferred to three PVDF filters as above. The first filter was blocked with 5% bovine serum albumin and probed for total and phosphoStat3 as above. The second filter was probed for phosphoSer473Akt and total Akt using appropriate antibodies and similar detection procedures to those used for STAT3. The third filter was probed for phosphoTyr699 Stat5 and total STAT5 using appropriate antibodies and similar detection procedures to those used for STAT3.

normal cells = assay: Effect on normal cells in the cell growth assay
Experimental: Lung Tumor Cell Viability Assay: H1819, H1299 and H827 lung tumor cells were seeded in 6-well plates at a density of 6×10^4, 4×10^4 and 5×10^4 cells/well, respectively. Prodrugs were dissolved in DMSO to make a stock concentration of 500 μM. The following day the cells were treated either with DMSO alone or with 0.25 μM, 0.5 μM, 1.0 μM, 2.5 μM and 5.0 μM of the compounds from Example 1, Example 16, and Example 22. Seventy two h after treatment with the drug the cells were subjected to cell viability assay using trypan blue. […] Cells were plated and after 24 hr were treated with the compound of Example 16 in DMSO. After 72 hr, cells were counted. Note that vertical axes are different for each plot.

| IFNγ-stimulated increase in phosphoStat1 (STAT1) | EGF-induced increase in Stat3 phosphorylation (STAT3) | SMILES | pAkt levels (Akt) | colony formation in soft agar, four breast tumor models [1] | effect on normal cells compared to vehicle DMSO (normal cells) |
| --- | --- | --- | --- | --- | --- |
| did not inhibit | effective at inhibiting | C/C(=C\C(=O)N[C@H]1CCc2cccc3c2N(C1=O)[C@H](C(=O)N[C@H](C)CCC(N)=O)C3)c1ccc(C(F)(F)P(=O)(OCOC(=O)C(C)(C)C)OCOC(=O)C(C)(C)C)cc1 [Example 1, (2E)-3-[4-[[bis[(2,2-dimethyl-1-oxopropoxy)methoxy]phosphinyl]difluoromethyl]phenyl]-but-2-enoyl-Haic-(R)-4-aminopentamide] | no effect | effectively inhibited colony formation |  |
|  | effective at inhibiting | CCCC[C@H](NC(=O)/C=C(\C)c1ccc(C(F)(F)P(=O)(OCOC(=O)C(C)(C)C)OCOC(=O)C(C)(C)C)cc1)C(=O)N1C[C@H]2CC2[C@H]1C(=O)N[C@@H](CCC(N)=O)[C@@H](C)OCc1ccccc1 (stereo partly drawn) [Example 16, (2E)-3-[4-[[bis[(2,2-dimethyl-1-oxopropoxy)methoxy]phosphinyl]difluoromethyl]phenyl]-but-2-enoyl-norleucinyl-(2S,3R,4S)-methanoprolinyl-(4S,5R)-4-amino-5-benzyloxyhexamide] |  |  | negligible effects |
